Experimental data: US4760136A, “Chartreusin derivatives and salts thereof” (Ishihara Sangyo Kaisha, Ltd., priority 1984, dated 1988)
Structures can show the parent of a compound that is named as a salt.

Key:
[1] = Acute toxicity, intravenous (once), ddY mice; type: in vivo; details: mouse, in vivo, iv, formulated per Preparation Example
From the text: In Table 7 are shown acute toxicity values (LD50, mg/kg) in ddY mice in the case of intravenously administering (once) each of the compounds of this invention in the form of preparations shown in the Preparation Examples shown in Table 7.

P-388 leukemia cells = assay: Antitumor activity: P-388 leukemia cells inoculated intraperitoneally, drug administered intravenously, BDF1 mice; type: in vivo; details: BDF1 mice, P-388 i.p.; for response vs control in vivo at 20 mg/kg / response vs control in vivo at 40 mg/kg / response vs control in vivo at 80 mg/kg: Mus musculus, P388, iv, read-out: T/C (%) of MST; for response vs control in vivo at 80 mg/kg: dose f: 80 mg/kg × 3, i.v. on days 1, 5 and 9
Experimental: Into BDF1 mice were inoculated intraperitoneally P-388 leukemia cells at a rate of 1×10^6 cells/mouse, and each drug to be tested was administered intravenously on the first, fifth and ninth days after the inoculation. […] The drugs were as follows solutions prepared by adding physiological saline to each of compound Nos. 8, 9, 10, 11, 17, 34, 42, 59, 80 and 134; suspensions prepared by dispersing each of compound Nos. 41, 78, 98, 100, 130, 191, 212, 213, 215, 227 and 230 to 232 and a small amount of sodium carboxymethyl cellulose (Na.CMC) in physiological saline, […]

[2] = dose b: 20 mg/kg × 3, i.v. on days 1, 5 and 9
[3] = dose c: 40 mg/kg × 3, i.v. on days 1, 5 and 9

SMILES: COC1C(O)C(C)OC(OC2C(Oc3cccc4c(OC(=O)C5CCCCC5NC(=O)C(F)(F)F)c5c(=O)oc6ccc(C)c7c(=O)oc(c34)c5c67)OC(C)C3OC(c4cccc(F)c4)OC32)C1O (single isomer, unassigned) [Compound No. 27, 6-O-(N-Trifluoroacetyl-2-Amino-Cyclohexanecarbonyl)-3',4'-O-(m-Fluorobenzylidene)-Chartreusin]
- LD50 [1]: ≥ 30 mg/kg
- response vs control in vivo at 20 mg/kg (P-388 leukemia cells; [2]): 179%

SMILES: COC1C(O)C(C)OC(OC2C(Oc3cccc4c(OC(=O)C5CCCCC5NC(=O)C(F)(F)F)c5c(=O)oc6ccc(C)c7c(=O)oc(c34)c5c67)OC(C)C3OC(c4ccccc4)OC32)C1O (single isomer, unassigned) [Compound No. 118, 6-O-(N-Trifluoroacetyl-2-Amino-Cyclohexanecarbonyl)-3',4'-O-Benzylidene-Chartreusin]
- LD50 [1]: ≥ 40 mg/kg
- T/C (%) of MST (P-388 leukemia cells; [3]): 135%

SMILES: COC1C(O)C(C)OC(OC2C(Oc3cccc4c(OC(=O)C(C)CN(C)C)c5c(=O)oc6ccc(C)c7c(=O)oc(c34)c5c67)OC(C)C3OC(c4ccccc4)OC32)C1O (stereo not drawn) [Compound No. 1, 6-O-(N,N-Dimethyl-β-Amino-Isobutyryl)-3',4'-O-Benzylidene-ChartreusinHydrochloride]
- LD50 [1]: ≥ 40 mg/kg
- response vs control in vivo at 20 mg/kg (P-388 leukemia cells; [2]): 138%
- response vs control in vivo at 40 mg/kg (P-388 leukemia cells; [3]): 214%

SMILES: COC1C(O)C(C)OC(OC2C(Oc3cccc4c(OC(=O)C(C)CNC(C)C)c5c(=O)oc6ccc(C)c7c(=O)oc(c34)c5c67)OC(C)C3OC(c4ccccc4)OC32)C1O (stereo not drawn) [Compound No. 2, 6-O-(N-Isopropyl-β-Amino-Isobutyryl)-3',4'-O-Benzylidene-Chartreusin Hydrochloride]
- LD50 [1]: ≥ 40 mg/kg
- response vs control in vivo at 20 mg/kg (P-388 leukemia cells; [2]): 184%
- response vs control in vivo at 40 mg/kg (P-388 leukemia cells; [3]): 216%

SMILES: COC1C(O)C(C)OC(OC2C(Oc3cccc4c(OC(=O)C(C)CNC(=O)CN)c5c(=O)oc6ccc(C)c7c(=O)oc(c34)c5c67)OC(C)C3OC(c4ccccc4)OC32)C1O (centres unmarked) [Compound No. 3]
- LD50 [1]: ≥ 40 mg/kg
- response vs control in vivo at 20 mg/kg (P-388 leukemia cells; [2]): 150%
- response vs control in vivo at 40 mg/kg (P-388 leukemia cells; [3]): 192%

SMILES: COC1C(O)C(C)OC(OC2C(Oc3cccc4c(OC(=O)C(C)CNC(=O)CN(C)C)c5c(=O)oc6ccc(C)c7c(=O)oc(c34)c5c67)OC(C)C3OC(c4ccccc4)OC32)C1O (centres unmarked) [Compound No. 4]
- LD50 [1]: ≥ 40 mg/kg
- response vs control in vivo at 20 mg/kg (P-388 leukemia cells; [2]): 184%
- response vs control in vivo at 40 mg/kg (P-388 leukemia cells; [3]): 216%

SMILES: COC1C(O)C(C)OC(OC2C(Oc3cccc4c(OC(=O)C(C)CN)c5c(=O)oc6ccc(C)c7c(=O)oc(c34)c5c67)OC(C)C3OC(c4ccccc4)OC32)C1O (stereo not drawn) [Compound No. 6, 6-O-(β-Amino-Isobutyryl)-3',4'-O-Benzylidene-Chartreusin Phosphate]
- LD50 [1]: ≥ 40 mg/kg
- response vs control in vivo at 20 mg/kg (P-388 leukemia cells; [2]): 182%
- response vs control in vivo at 40 mg/kg (P-388 leukemia cells; [3]): 242%

SMILES: CCN(CC)CCC(=O)Oc1c2cccc(OC3OC(C)C4OC(c5ccccc5)OC4C3OC3OC(C)C(O)C(OC)C3O)c2c2oc(=O)c3c(C)ccc4oc(=O)c1c2c43 (stereo not drawn) [Compound No. 8, 6-O-(N,N-Diethyl-β-Alanyl)-3',4'-O-Benzylidene-Chartreusin Hydrochloride]
- LD50 [1]: ≥ 40 mg/kg
- response vs control in vivo at 20 mg/kg (P-388 leukemia cells; [2]): 186%
- response vs control in vivo at 40 mg/kg (P-388 leukemia cells; [3]): 220%

SMILES: COC1C(O)C(C)OC(OC2C(Oc3cccc4c(OC(=O)CCN5CCCC5)c5c(=O)oc6ccc(C)c7c(=O)oc(c34)c5c67)OC(C)C3OC(c4ccccc4)OC32)C1O (centres unmarked) [Compound No. 9]
- LD50 [1]: ≥ 40 mg/kg
- response vs control in vivo at 20 mg/kg (P-388 leukemia cells; [2]): 165%
- response vs control in vivo at 40 mg/kg (P-388 leukemia cells; [3]): 292%

SMILES: COC1C(O)C(C)OC(OC2C(Oc3cccc4c(OC(=O)CNC(=O)CNC(=O)CN)c5c(=O)oc6ccc(C)c7c(=O)oc(c34)c5c67)OC(C)C3OC(c4ccccc4)OC32)C1O (centres unmarked) [Compound No. 11]
- LD50 [1]: ≥ 40 mg/kg
- response vs control in vivo at 20 mg/kg (P-388 leukemia cells; [2]): 186%

SMILES: COC1C(O)C(C)OC(OC2C(Oc3cccc4c(OC(=O)C(C)CNC(=O)C(F)(F)F)c5c(=O)oc6ccc(C)c7c(=O)oc(c34)c5c67)OC(C)C3OC(c4ccccc4)OC32)C1O (stereo not drawn) [Compound No. 12, 6-O-(N-Trifluoroacetyl-β-Amino-Isobutyryl)-3',4'-O-Benzylidene-Chartreusin]
- LD50 [1]: ≥ 40 mg/kg
- response vs control in vivo at 20 mg/kg (P-388 leukemia cells; [2]): 203%
- T/C (%) of MST (P-388 leukemia cells; [3]): 241%

SMILES: COC1C(O)C(C)OC(OC2C(Oc3cccc4c(OC(=O)C(C)CNC(=O)c5ccccc5)c5c(=O)oc6ccc(C)c7c(=O)oc(c34)c5c67)OC(C)C3OC(c4ccccc4)OC32)C1O (centres unmarked) [Compound No. 13]
- LD50 [1]: ≥ 40 mg/kg
- response vs control in vivo at 20 mg/kg (P-388 leukemia cells; [2]): 186%
- response vs control in vivo at 40 mg/kg (P-388 leukemia cells; [3]): 262%

SMILES: COC1C(O)C(C)OC(OC2C(Oc3cccc4c(OC(=O)C(C)CN)c5c(=O)oc6ccc(C)c7c(=O)oc(c34)c5c67)OC(C)C3OC(c4cccc(F)c4)OC32)C1O (centres unmarked) [Compound No. 14]
- LD50 [1]: ≥ 30 mg/kg
- response vs control in vivo at 20 mg/kg (P-388 leukemia cells; [2]): 195%

SMILES: CCN(CC)CCC(=O)Oc1c2cccc(OC3OC(C)C4OC(c5cccc(F)c5)OC4C3OC3OC(C)C(O)C(OC)C3O)c2c2oc(=O)c3c(C)ccc4oc(=O)c1c2c43 (stereo not drawn) [Compound No. 15, 6-O-(N,N-diethyl-β-alanyl)-3',4'-O-(m-fluorobenzylidene)-chartreusin hydrochloride]
- LD50 [1]: ≥ 30 mg/kg
- response vs control in vivo at 20 mg/kg (P-388 leukemia cells; [2]): 189%

SMILES: COC1C(O)C(C)OC(OC2C(Oc3cccc4c(OC(=O)CCN)c5c(=O)oc6ccc(C)c7c(=O)oc(c34)c5c67)OC(C)C3OC(c4cccc(F)c4)OC32)C1O (stereo not drawn) [Compound No. 16, 6-O-(β-alanyl)-3',4'-O-(m-fluorobenzylidene)-chartreusin phosphate]
- LD50 [1]: ≥ 40 mg/kg
- response vs control in vivo at 20 mg/kg (P-388 leukemia cells; [2]): 164%
- response vs control in vivo at 40 mg/kg (P-388 leukemia cells; [3]): 242%

SMILES: COC1C(O)C(C)OC(OC2C(Oc3cccc4c(OC(=O)CCN)c5c(=O)oc6ccc(C)c7c(=O)oc(c34)c5c67)OC(C)C3OC(c4ccccc4)OC32)C1O (centres unmarked) [Compound No. 18]
- LD50 [1]: ≥ 40 mg/kg
- T/C (%) of MST (P-388 leukemia cells; [2]): 196%
- T/C (%) of MST (P-388 leukemia cells; [3]): 238%

SMILES: COC1C(O)C(C)OC(OC2C(Oc3cccc4c(OC(=O)CCCCCN)c5c(=O)oc6ccc(C)c7c(=O)oc(c34)c5c67)OC(C)C3OC(c4ccccc4)OC32)C1O (centres unmarked) [Compound No. 19]
- LD50 [1]: ≥ 40 mg/kg
- response vs control in vivo at 20 mg/kg (P-388 leukemia cells; [2]): 184%
- response vs control in vivo at 40 mg/kg (P-388 leukemia cells; [3]): 233%

SMILES: COC1C(O)C(C)OC(OC2C(Oc3cccc4c(OC(=O)CCNC=O)c5c(=O)oc6ccc(C)c7c(=O)oc(c34)c5c67)OC(C)C3OC(c4ccccc4)OC32)C1O (centres unmarked) [Compound No. 20]
- response vs control in vivo at 40 mg/kg (P-388 leukemia cells; [3]): 248%
- T/C (%) of MST (P-388 leukemia cells; [2]): 203%

SMILES: COC1C(O)C(C)OC(OC2C(Oc3cccc4c(OC(=O)CCNC(=O)C(F)(F)F)c5c(=O)oc6ccc(C)c7c(=O)oc(c34)c5c67)OC(C)C3OC(c4ccccc4)OC32)C1O (centres unmarked) [Compound No. 21]
- response vs control in vivo at 20 mg/kg (P-388 leukemia cells; [2]): 210%
- T/C (%) of MST (P-388 leukemia cells; [3]): 229%

SMILES: COC1C(O)C(C)OC(OC2C(Oc3cccc4c(OC(=O)C(C)CNC(=O)C(F)(F)F)c5c(=O)oc6ccc(C)c7c(=O)oc(c34)c5c67)OC(C)C3OC(c4ccccc4)OC32)C1O (centres unmarked) [Compound No. 44]
- response vs control in vivo at 80 mg/kg (P-388 leukemia cells): 217%
- T/C (%) of MST (P-388 leukemia cells; [3]): 164%

SMILES: COC1C(O)C(C)OC(OC2C(Oc3cccc4c(OC(=O)CCNC=O)c5c(=O)oc6ccc(C)c7c(=O)oc(c34)c5c67)OC(C)C3OC(c4ccccc4)OC32)C1O (centres unmarked) [Compound No. 45]
- response vs control in vivo at 40 mg/kg (P-388 leukemia cells; [3]): 220%
- T/C (%) of MST (P-388 leukemia cells; [2]): 164%

SMILES: COC1C(O)C(C)OC(OC2C(Oc3cccc4c(OC(=O)CCCOCc5ccccc5)c5c(=O)oc6ccc(C)c7c(=O)oc(c34)c5c67)OC(C)C3OC(c4ccccc4)OC32)C1O (centres unmarked) [Compound No. 165, 6-O-(4-benzyloxy-n-butyryl)-3',4'-O-Benzylidene-Chartreusin]
- response vs control in vivo at 20 mg/kg (P-388 leukemia cells; [2]): 189%

SMILES: COC1C(O)C(C)OC(OC2C(Oc3cccc4c(OC(=O)CCNC(=O)OCc5ccccc5)c5c(=O)oc6ccc(C)c7c(=O)oc(c34)c5c67)OC(C)C3OC(c4ccccc4)OC32)C1O (centres unmarked) [compound 103]
- response vs control in vivo at 40 mg/kg (P-388 leukemia cells; [3]): 146%
- response vs control in vivo at 80 mg/kg (P-388 leukemia cells): 203%

SMILES: COC1C(O)C(C)OC(OC2C(Oc3cccc4c(OC(=O)CNC(=O)OCc5ccccc5)c5c(=O)oc6ccc(C)c7c(=O)oc(c34)c5c67)OC(C)C3OC(c4ccccc4)OC32)C1O (centres unmarked) [compound 104]
- response vs control in vivo at 40 mg/kg (P-388 leukemia cells; [3]): 137%

SMILES: COC1C(O)C(C)OC(OC2C(Oc3cccc4c(OC(=O)c5cccc(Cl)c5)c5c(=O)oc6ccc(C)c7c(=O)oc(c34)c5c67)OC(C)C3OC(C)(C)OC32)C1O (centres unmarked) [compound 226]
- response vs control in vivo at 40 mg/kg (P-388 leukemia cells; [3]): 145%
